Results on 26 compounds are retold here after patent US12370183B2, “Compositions and methods for treating malaria” (Rutgers, The State University of New Jersey, priority 2020, dated 2025).

Assay [1] has as its system 3D7 strain of Plasmodium falciparum. The experiment in a line: Potency in the 3D7 strain of Plasmodium falciparum (EC50). The format is cell-based. The note with it: Plasmodium falciparum. An excerpt: The present invention relates to methods of treating malaria with tetrahydrobenzonaphtyridine carboxanilide (TBN) derivatives and related pyrrolinones and hydrolysis products thereof. These compounds are active against Plasmodium falciparum strains that are resistant to multiple drugs currently on the market. The present invention further relates to novel compounds and pharmaceutical compositions comprising such compounds. The compounds have been synthesized and tested for their potency in the 3D7 strain of Plasmodium falciparum. Their cytotoxicity was also tested in the BJ human fibroblast line. No compounds show significant cytotoxicity.
(§1) A high-throughput screen performed against the Plasmodium parasite. About 8,000 compounds were screened. Each hit was tested against resistant P. falciparum variants K1, V1S, D10DD, ATP4 1247, and C2B. Potency against these assays assured that the chemotype acts through a mechanism distinct from that of halofantrine, chloroquine, mefloquine, pyrimethamine, proguanil, atovaquone, and (+)SJ733. The toxicity of the compounds was also measured by testing their lethality against a BJ cell line (human fibroblasts). No TBNs were toxic. A structure activity investigation was performed in order to improve the EC50 of the TBNs to the single-digit nanomolar range, as well as to increase the water solubility.
(§2) Substituents were installed at N−2 by using a variety of methods. Reductive alkylation (Abdel-Magid, A. F.; Mehrman, S. J. A Review on the Use of Sodium Triacetoxyborohydride in the Reductive Amination of Ketones and Aldehydes. Org. Process Res. Dev. 2006, 10 (5), 971-1031) was a dependable technique that produced over fifteen analogues. Conjugate additions and nucleophilic substitutions provided most of the others. A type of reductive alkylation that uses carboxylic acids instead of aldehydes (the Beller reduction) led to two analogues (Sorribes, I.; Junge, K.; Beller, M. Direct Catalytic N-Alkylation of Amines with Carboxylic Acids. J. Am. Chem. Soc. 2014, 136 (40), 14314-14319. Some of the compounds listed were synthesized through other means, or were derived from other TBNs. Compounds 66 and 128 were produced by the amidation of acids 132 and 133, which had the corresponding substitution already installed. TBNs 93, and 94 were produced from the Pfitzinger products formed from the condensation of isatin with (R)-1-(1-phenylethyl)piperidin-4-one (134) and (S)-1-(1-phenylethyl)piperidin-4-one (135), respectively.

The subject of assay [2] is resistant P. falciparum variant K1. The experiment in a line: Potency against resistant P. falciparum variant K1 (EC50). The format is cell-based. The note with it: Plasmodium falciparum, K1, read-out: K1 EC50 (μM). The procedure: as §1, §2
The mark [3] stands for this setting: 3D7, read-out: 3D7 Mean EC50 (μM).

Structures are written as SMILES. Where two headings read alike, the source gives them in different places. Some results are limits rather than exact numbers.

For `O=C(Nc1ccc(F)c(F)c1)c1c2c(nc3ccccc13)CCNC2` [Compound 88, N-(3,4-Difluorophenyl)-1,2,3,4-tetrahydrobenzo[b][1,6]naphthyridine-10-carboxamide], the EC50 in assay [1] (setting [3]) is 10.3 ± 10.2 µM. For the compound `CC(C)(C)OC(=O)N1CCC(N2CCc3nc4ccccc4c(C(=O)Nc4ccc(F)c(F)c4)c3C2)CC1` [Compound 89, tert-Butyl 4-(10-((3,4-difluorophenyl)carbamoyl)-3,4-dihydrobenzo[b][1,6]naphthyridin-2(1H)-yl)piperidine-1-carboxylate], the EC50 in assay [1] (setting [3]) was 0.0257 ± 0.00583 µM. `O=C(Nc1ccc(F)c(F)c1)c1c2c(nc3ccccc13)CCN(CCc1ccccc1)C2` [Compound 91, N-(3,4-Difluorophenyl)-2-phenethyl-1,2,3,4-tetrahydrobenzo[b][1,6]naphthyridine-10-carboxamide]: the values for the EC50 in assay [1] (setting [3]) and in assay [2] were 0.117 ± 0.102 µM and 0.0839 µM, respectively. On the same counts, the results for `C[C@H](c1ccccc1)N1CCc2nc3ccccc3c(C(=O)Nc3ccc(F)c(F)c3)c2C1` [Compound 93, (R)—N-(3,4-Difluorophenyl)-2-(1-phenylethyl)-1,2,3,4-tetrahydrobenzo[b][1,6]naphthyridine-10-carboxamide] are 0.131 ± 0.00623 µM and 0.064 µM. On the same counts, the results for `C[C@@H](c1ccccc1)N1CCc2nc3ccccc3c(C(=O)Nc3ccc(F)c(F)c3)c2C1` [Compound 94, (S)—N-(3,4-Difluorophenyl)-2-(1-phenylethyl)-1,2,3,4-tetrahydrobenzo[b][1,6]naphthyridine-10-carboxamide] are 0.154 ± 0.0285 µM and 0.148 µM.

With `CC(C)CN1CCc2nc3ccccc3c(C(=O)Nc3ccc(F)c(F)c3)c2C1` [Compound 95, N-(3,4-Difluorophenyl)-2-isobutyl-1,2,3,4-tetrahydrobenzo[b][1,6]naphthyridine-10-carboxamide], the EC50 in assay [1] (setting [3]) amounted to 0.154 ± 0.162 µM; in assay [2] it was 0.121 µM. The like results for `CC(C)N1CCc2nc3ccccc3c(C(=O)Nc3ccc(F)c(F)c3)c2C1` [Compound 96, N-(3,4-Difluorophenyl)-2-isopropyl-1,2,3,4-tetrahydrobenzo[b][1,6]naphthyridine-10-carboxamide] were, in that order, 0.215 ± 0.269 µM and 0.177 µM.

Take `COC(=O)C(C)CN1CCc2nc3ccccc3c(C(=O)Nc3ccc(F)c(F)c3)c2C1` (centres unmarked) [Compound 97, Methyl 3-(10-((3,4-difluorophenyl)carbamoyl)-3,4-dihydrobenzo[b][1,6]naphthyridin-2(1H)-yl)-2-methylpropanoate]: the EC50 in assay [1] (setting [3]) came to 0.328 ± 0.17 µM; in assay [2] it was 0.185 µM. `O=C(Nc1ccc(F)c(F)c1)c1c2c(nc3ccccc13)CCN(CCc1ccccn1)C2` [Compound 98, N-(3,4-Difluorophenyl)-2-(2-(pyridin-2-yl)ethyl)-1,2,3,4-tetrahydrobenzo[b][1,6]naphthyridine-10-carboxamide]: the EC50 in assay [1] (setting [3]) turned out to be 0.329 ± 0.0232 µM.

Regarding `CCCCN1CCc2nc3ccccc3c(C(=O)Nc3ccc(F)c(F)c3)c2C1` [Compound 99, 2-Butyl-N-(3,4-difluorophenyl)-1,2,3,4-tetrahydrobenzo[b][1,6]naphthyridine-10-carboxamide], the EC50 in assay [1] (setting [3]) turned out to be 0.37 ± 0.376 µM; in assay [2], 0.102 µM. In the case of `O=C(Nc1ccc(F)c(F)c1)c1c2c(nc3ccccc13)CCN(Cc1cccc(F)c1)C2` [Compound 100, N-(3,4-Difluorophenyl)-2-(3-fluorobenzyl)-1,2,3,4-tetrahydrobenzo[b][1,6]naphthyridine-10-carboxamide], the values for the EC50 in assay [1] (setting [3]) and in assay [2] were 0.412 ± 0.291 µM and 0.161 µM, respectively.

Consider `Cn1ccc(CN2CCc3nc4ccccc4c(C(=O)Nc4ccc(F)c(F)c4)c3C2)n1` [Compound 114, N-(3,4-Difluorophenyl)-2-((1-methyl-1H-pyrazol-3-yl)methyl)-1,2,3,4-tetrahydrobenzo[b][1,6]naphthyridine-10-carboxamide], for which, in assay [1] (setting [3]), the EC50 is 1.89 ± 0.817 µM. Still for that read-out and setting: next, `O=C(Nc1ccc(F)c(F)c1)c1c2c(nc3ccccc13)CCN(Cc1cncc(F)c1)C2` [Compound 115, N-(3,4-Difluorophenyl)-2-((5-fluoropyridin-3-yl)methyl)-1,2,3,4-tetrahydrobenzo[b][1,6]naphthyridine-10-carboxamide]: 1.96 ± 2.34 µM; `Cn1cnc(CN2CCc3nc4ccccc4c(C(=O)Nc4ccc(F)c(F)c4)c3C2)c1` [Compound 117, N-(3,4-Difluorophenyl)-2-((1-methyl-1H-imidazol-4-yl)methyl)-1,2,3,4-tetrahydrobenzo[b][1,6]naphthyridine-10-carboxamide]: 2.4 ± 1.39 µM.

Regarding `O=C(Nc1ccc(F)c(F)c1)c1c2c(nc3ccccc13)CCN(Cc1ncccc1F)C2` [Compound 118, N-(3,4-difluorophenyl)-2-((3-fluoropyridin-2-yl)methyl)-1,2,3,4-tetrahydrobenzo[b][1,6]naphthyridine-10-carboxamide], the EC50 in assay [1] (setting [3]) was determined as 3.41 ± 2.9 µM. Still for that read-out and setting: next, `CCOCC(=O)N1CCc2nc3ccccc3c(C(=O)Nc3ccc(F)c(F)c3)c2C1` [Compound 119, N-(3,4-Difluorophenyl)-2-(2-ethoxyacetyl)-1,2,3,4-tetrahydrobenzo[b][1,6]naphthyridine-10-carboxamide]: 3.49 ± 0.831 µM. Same read-out and setting: next, `O=C(Nc1ccc(F)c(F)c1)c1c2c(nc3ccccc13)CCN(CCN1C(=O)c3ccccc3C1=O)C2` [Compound 121, N-(3,4-Difluorophenyl)-2-(2-(1,3-dioxoisoindolin-2-yl)ethyl)-1,2,3,4-tetrahydrobenzo[b][1,6]naphthyridine-10-carboxamide]: 3.95 ± 1.07 µM. On the same count and under the same terms, for `O=C(Nc1ccc(F)c(F)c1)c1c2c(nc3ccccc13)CCN(CC(F)(F)F)C2` [Compound 123, N-(3,4-Difluorophenyl)-2-(2,2,2-trifluoroethyl)-1,2,3,4-tetrahydrobenzo[b][1,6]naphthyridine-10-carboxamide] the value was 7.69 ± 8.61 µM; for `COC(=O)CN1CCc2nc3ccccc3c(C(=O)Nc3ccc(F)c(F)c3)c2C1` [Compound 125, Methyl 2-(10-((3,4-difluorophenyl)carbamoyl)-3,4-dihydrobenzo[b][1,6]naphthyridin-2(1H)-yl)acetate], 9.11 ± 7.61 µM. For the compound `Cn1ccnc1CN1CCc2nc3ccccc3c(C(=O)Nc3ccc(F)c(F)c3)c2C1` [Compound 127, N-(3,4-Difluorophenyl)-2-((1-methyl-1H-imidazol-2-yl)methyl)-1,2,3,4-tetrahydrobenzo[b][1,6]naphthyridine-10-carboxamide], the EC50 in assay [1] (setting [3]) came out at 10.1 ± 6.39 µM. Still for that read-out and setting: for `CCN1CCc2nc3ccccc3c(C(=O)Nc3ccc(F)c(F)c3)c2C1` [Compound 128, N-(3,4-Difluorophenyl)-2-ethyl-1,2,3,4-tetrahydrobenzo[b][1,6]naphthyridine-10-carboxamide] the value was above 12.2 µM; for `CS(=O)(=O)CCN1CCc2nc3ccccc3c(C(=O)Nc3ccc(F)c(F)c3)c2C1` [Compound 130, N-(3,4-Difluorophenyl)-2-(2-(methylsulfonyl)ethyl)-1,2,3,4-tetrahydrobenzo[b][1,6]naphthyridine-10-carboxamide], above 14.7 µM. As for `CC(=O)O[C@H]1CO[C@H]2[C@@H]1OC[C@@H]2Oc1cccc(NC(=O)c2c3c(nc4ccccc24)CCN(CCc2ccccc2)C3)c1` [Compound 147, (3S,3aR,6S,6aR)-6-(3-(2-Phenethyl-1,2,3,4-tetrahydrobenzo[b][1,6]naphthyridine-10-carboxamido)phenoxy)hexahydrofuro[3,2-b]furan-3-yl acetate], the EC50 in assay [1] (3D7, read-out: potency (EC50)) stood at 3.87 µM. `O=C(Nc1ccc(F)c(F)c1)c1c2c(nc3cc(Cl)ccc13)CCN(CCc1ccccc1)C2` [Compound 157, 7-Chloro-N-(3,4-difluorophenyl)-2-phenethyl-1,2,3,4-tetrahydrobenzo[b][1,6]naphthyridine-10-carboxamide]: in assay [1] (setting [3]), the EC50 is 0.0179 ± 0.01 µM. Still for that read-out and setting: next, `O=C(Nc1ccc(F)c(F)c1)c1c2c(nc3ccc(Cl)cc13)CCN(CCc1ccccc1)C2` [Compound 158, 8-Chloro-N-(3,4-difluorophenyl)-2-phenethyl-1,2,3,4-tetrahydrobenzo[b][1,6]naphthyridine-10-carboxamide]: 0.0153 ± 0.00774 µM. Take `O=C1c2c3c(nc4cc(Cl)ccc24)CCN(CCc2ccccc2)C3N1c1ccc(F)c(F)c1` (centres unmarked) [Compound 172, 8-Chloro-2-(3,4-difluorophenyl)-3-phenethyl-2a,3,4,5-tetrahydrobenzo[b]pyrrolo[4,3,2-de][1,6]naphthyridin-1(2H)-one]: the EC50 is 0.0071 µM in assay [1] (3D7) and 0.0071 ± 0.000461 µM in assay [1] (setting [3]).

What is called EC50 is the midpoint of the concentration-response curve.
